Like-named read-outs stand apart in the source and are kept apart here.
Tests used:
[1] = system: Chinese hamster ovary (CHO) cells; assay: Protein translation assay (puromycin labelling, CHO cells); format: cell-based; conditions: Cricetulus griseus, CHO, media alone = 100%
How it was run: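 CHO cells given compound 2 h at 1 μM (unstressed), or 1 h at 100 nM or 1 μM then co-treated with 300 nM Tg (stressed); 10 μg/ml puromycin pulse 30 min, anti-puromycin western blot with β-actin, densitometry. Normalized to media alone (100%) and, for stressed cells, Tg alone (0%).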

[2] = system: CT26 tumor-bearing Balb/c mice, gastrocnemius; assay: Cachexia-induced muscle atrophy; format: in vivo, mouse; conditions: 10 mg/kg daily oral gavage for 12 days
Description: Wild type six-weeks-old male Balb/c mice obtained from the vivarium Fundación Ciencia & Vida Chile (Santiago, Chile) were used. Mice were housed in independent plastic cages in a room maintained at 25° C. with a 12-h:12-h light:dark cycle.
1×10^6 CT26 colon carcinoma cell line (ATCC #CRL-2638, ATCC Manassas, Va.) were injected subcutaneously in the right lower flank of each animal for induction of cachexia-induced muscle atrophy as described (Nat Commun. 2012 Jun. 12; 3:896). Non-injected animals were used as controls. At day 7 post tumor-cell injection, animals were randomized into two groups and treated with 10 mg/kg of test compound formulated in 50% Polyethylene glycol (PEG-400) in distilled water, or with vehicle (50% PEG-400 in distilled water) by daily oral gavage for 12 days.
After 12 treatments, animals were sacrificed and gastrocnemius were removed from both hindlimbs. Muscles derived from non-tumor-bearing mice were used as control.
Upon collection, muscles were immediately frozen in liquid nitrogen and then stored at −80° C. The frozen muscles were then homogenized with a T 10 basic ULTRA-TURRAX (IKa) in ice-cold buffer lysis (Cell Signaling 9803) and protease and phosphatase inhibitors (Roche). Lysates were sonicated for 3 min and centrifuged at 13,000 rpm for 20 minutes at 4° C. Protein concentration in supernatants was determined using BCA Protein Assay Kit (Pierce). Equal amount of protein was loaded on SDS-PAGE gels. […]
ATF4 (Abcam), Atrogin-1 (ECM Biosciences), MuRF-1 (Santa Cruz Biotechnology) and β-actin (Sigma-Aldrich) antibodies were used as primary antibodies. […] Quantification of protein bands was done by densitometry using ImageJ software.
Expression of ATF4 and the muscle atrophy markers, Atrogin-1 and MuRF-1, of gastrocnemius derived from control and CT26 tumor-bearing mice treated with vehicle or compound 58 are shown in FIG. 10A. […] The levels were normalized to β-actin expression and percentage was calculated as the percent relative to the expression of non-tumor-bearing mice (Control) which corresponds to 100%. […]

**Q.** What does the source list for `O=C(NN1CCN(C[C@@H](O)COc2ccc(Cl)c(F)c2)CC1)c1ccc2cc(Cl)ccc2n1` [Compound 58, (R)-6-chloro-N-(4-(3-(4-chloro-3-fluorophenoxy)-2-hydroxypropyl)piperazin-1-yl)quinoline-2-carboxamide]?
**A.** activity at 1 µM ([1]; 2 h, unstressed CHO cells, 1 μM, 2 hours, read-out: % Protein synthesis in unstressed cells (1 μM test compound)): 164%; activity at 1 µM ([1]; CHO cells stressed with 300 nM Tg, 1 μM compound, Tg alone = 0%, read-out: % Recovery of protein expression (1 μM test compound)): 118%; ATF4 expression in gastrocnemius ([2]; vs vehicle (FIG. 10B)): reduction; Atrogin-1 expression in gastrocnemius ([2]; vs vehicle (FIG. 10C)): reduction; MuRF-1 expression in gastrocnemius ([2]; vs vehicle (FIG. 10D)): reduction

Source: US11166942B2 (PRAXIS BIOTECH LLC, priority 2018, dated 2021)
